Measured values taken from patent US20240409585A1, “MACROCYCLIC IMMUNOMODULATORS” (priority 2021, published 2024).
Read-outs that look alike come from different tables or passages of the source. Numbered stars: 1 amine (or outer) side, 2 acyl side, 3 side chain; on linkers, the order of the positions; unused ones are H or OH. Bridge positions count the residues as written; N and C are the ends. Square brackets hold non-standard residues; d marks the D form. Peptide text beside a SMILES is read from it. * marks the point of attachment. Bip(4'-COOH) = N[C@@H](Cc1ccc(-c2ccc(C(=O)O)cc2)cc1)C(=O)O; Bip(4'-NHAc) = CC(=O)Nc1ccc(-c2ccc(C[C@H](N)C(=O)O)cc2)cc1; X1 = O=C(C[C@H](N[*:1])C(=O)[*:2])NS(=O)(=O)c1ccc(Cl)cc1F; X17 = Nc1ccc(-c2cccc(C[C@H](N[*:1])C(=O)[*:2])c2)cn1; Phe(3-CF3) = N[C@@H](Cc1cccc(C(F)(F)F)c1)C(=O)O; Ala(morpholin-4-yl) = N[C@@H](CN1CCOCC1)C(=O)O; Phe(4-CONH2) = NC(=O)c1ccc(C[C@H](N)C(=O)O)cc1; Phe(4-COOH) = N[C@@H](Cc1ccc(C(=O)O)cc1)C(=O)O; Bip = N[C@@H](Cc1ccc(-c2ccccc2)cc1)C(=O)O; Phe(3-Me) = Cc1cccc(C[C@H](N)C(=O)O)c1; Abu(3S-NH2) = C[C@H](N)[C@H](N)C(=O)O; Val(3-OH) = CC(C)(O)[C@H](N)C(=O)O; 3Pal = N[C@@H](Cc1cccnc1)C(=O)O; Cha = N[C@@H](CC1CCCCC1)C(=O)O; Carboxymethyl = O=C(O)C*; NMeA = CN[C@@H](C)C(=O)O; Orn = NCCC[C@H](N)C(=O)O; Dab = NCC[C@H](N)C(=O)O

Columns and labels:
[1] = molecular target: T1, PE-labeled human PD-L1-Ig binding to Jurkat cell line over-expressing human PD-1 (Jurkat-PD-1) (Homo sapiens, UniProt Q15116); experiment: Jurkat-PD-1 Cell Binding High-Content Screening Assay (CBA): Method 1; details: Jurkat-PD-1 cells, PE-labeled PD-L1-Ig
T1 construct: expressed in transfected cells; host or cells: Jurkat

[2] = molecular target: T1, PE-labeled human PD-L1-Ig binding to Jurkat cell line over-expressing human PD-1 (Jurkat-PD-1); experiment: Jurkat-PD-1 Cell Binding High-Content Screening Assay (CBA): Method 2 (presence and absence of tween-20); details: Jurkat-PD-1 cells, PE-labeled PD-L1-Ig 20 nM, presence or absence of tween-20 not given
Description: Jurkat-PD-1 Cell Binding High-Content Screening Assay (CBA): Method 2
Phycoerythrin (PE) was covalently linked to the Ig epitope tag of human PD-L1-Ig and fluorescently labeled PD-L1-Ig was used for binding studies with a Jurkat cell line over-expressing human PD-1 (Jurkat-PD-1). […] 100 nl of compound was added to cells followed by incubation at 37° C. for 2 hours. To interrogate potential issues with compound aggregation, compounds were tested in the presence and absence of tween-20 detergent. […] Then, 5 μl of PE-labeled PD-L1-Ig (20 nM final), diluted in DMEM supplemented with 10% fetal calf serum. […] Data was collected and processed using a Cell Insight NXT High Content Imager and associated software.

[3] = molecular target: T2, Alexa fluor-647 labeled human PD-L1-Ig binding to Jurkat cell line over-expressing human PD-1 (Homo sapiens, UniProt Q15116); experiment: Jurkat-PD-1 Cell Binding High-Content Screening Assay (CBA): Method 3 (Alexa fluor-647 labeled PD-L1-Ig); details: Jurkat-PD-1 cells, Alexa fluor-647 labeled PD-L1-Ig 177 nM
T2 construct: expressed in transfected cells; host or cells: Jurkat
How it was run: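 Readout by high-content imaging of PFA-fixed, Hoechst-stained cells after 1 h with 177 nM (final) Alexa fluor-647 PD-L1-Ig. Compound was added first to hPD-1 Jurkat cells in RPMI plus 10% FCS for 2 h at 37 °C.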

[4] = head μM, read-out: CBA Method 2 μM
[5] = head μM, read-out: CBA Method 3 μM

T1 sequence (Q15116 25-288): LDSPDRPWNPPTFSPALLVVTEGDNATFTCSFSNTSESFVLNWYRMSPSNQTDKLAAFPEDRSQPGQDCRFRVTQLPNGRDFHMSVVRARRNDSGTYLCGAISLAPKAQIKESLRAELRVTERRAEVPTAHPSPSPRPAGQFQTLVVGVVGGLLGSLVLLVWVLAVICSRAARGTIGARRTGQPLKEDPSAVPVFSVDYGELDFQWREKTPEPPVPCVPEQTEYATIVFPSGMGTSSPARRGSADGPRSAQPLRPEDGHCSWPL
T2 sequence (Q15116 25-288): as above

## COC[C@@H]1NC(=O)CSC[C@@H](C(=O)N[C@@H](CCN)C(N)=O)NC(=O)[C@H](CCCN)NC(=O)[C@H](C(C)C)NC(=O)[C@H](CC2CCCCC2)NC(=O)[C@H](CCN)NC(=O)[C@@H](CC(C)C)NC(=O)[C@H](C)N(C)C(=O)[C@H](CCC(N)=O)NC(=O)[C@H](Cc2ccc(-c3ccccc3)cc2)NC(=O)[C@H](Cc2ccc(-c3ccc(C(=O)O)cc3)cc2)NC(=O)[C@H](Cc2cccc(C)c2)NC(=O)[C@H](CC(=O)O)NC(=O)[C@H](Cc2ccc(OCC(=O)O)cc2)NC1=O [Example 5057] ({CH2CO}-S(Me)Y(Carboxymethyl)D[Phe(3-Me)][Bip(4'-COOH)][Bip]Q[NMeA][dL][Dab][Cha]V[Orn]C[Dab]-NH2; thioether N-14)
[1]; μM, read-out: CBA Method 1 μM
  IC50: 0.0089 µM
[2]; [4]
  IC50: 0.0106 µM

## CC(C)C[C@H]1NC(=O)[C@H](C)N(C)C(=O)[C@H](CCC(N)=O)NC(=O)[C@H](Cc2ccc(-c3ccccc3)cc2)NC(=O)[C@H](Cc2ccc(C(=O)O)cc2)NC(=O)[C@H](Cc2cccc(C(F)(F)F)c2)NC(=O)[C@H](CC(=O)NS(=O)(=O)c2ccc(Cl)cc2F)NC(=O)[C@H](Cc2ccc(C(=O)O)cc2)NC(=O)[C@H](CN2CCOCC2)NC(=O)CSC[C@@H](C(=O)N[C@@H](CCN)C(N)=O)NC(=O)[C@H](CCCN)NC(=O)[C@H](C(C)C)NC(=O)[C@H](CC2CCCCC2)NC(=O)[C@H](CCN)NC1=O [Example 5081] ({CH2CO}-[Ala(morpholin-4-yl)][Phe(4-COOH)][X1][Phe(3-CF3)][Phe(4-COOH)][Bip]Q[NMeA][dL][Dab][Cha]V[Orn]C[Dab]-NH2; thioether N-14)
[1]; μM, read-out: CBA Method 1 μM
  IC50: 0.173 µM
[2]; [4]
  IC50: 0.113 µM

## CC(C)C[C@H]1NC(=O)[C@H](C)N(C)C(=O)[C@H](CCCN)NC(=O)[C@H](Cc2ccc(-c3ccccc3)cc2)NC(=O)[C@H](Cc2ccc(-c3ccc(C(=O)O)cc3)cc2)NC(=O)[C@H](Cc2cccc(C(F)(F)F)c2)NC(=O)[C@H](CC(=O)O)NC(=O)[C@H](Cc2ccc(-c3ccc(C(=O)O)cc3)cc2)NC(=O)[C@H](Cc2ccc(OCC(=O)O)cc2)NC(=O)CSC[C@@H](C(=O)N[C@@H](CCN)C(N)=O)NC(=O)[C@H](CC(N)=O)NC(=O)[C@H](C(C)C)NC(=O)[C@H](CC2CCCCC2)NC(=O)[C@H](CCN)NC1=O [Example 5086] ({CH2CO}-Y(Carboxymethyl)[Bip(4'-COOH)]D[Phe(3-CF3)][Bip(4'-COOH)][Bip][Orn][NMeA][dL][Dab][Cha]VNC[Dab]-NH2; thioether N-14)
[1]; nM, read-out: CBA Method 1
  IC50: 0.0055 µM
[2]; nM, read-out: CBA Method 2
  IC50: 0.0099 µM

## Cc1cccc(C[C@@H]2NC(=O)[C@H](CC(=O)O)NC(=O)[C@H](Cc3ccc(OCC(=O)O)cc3)NC(=O)[C@H](CN3CCOCC3)NC(=O)CSC[C@@H](C(=O)N[C@@H](CCN)C(N)=O)NC(=O)[C@H](CCCN)NC(=O)[C@H](C(C)C)NC(=O)[C@H](Cc3cccnc3)NC(=O)[C@H](CCN)NC(=O)[C@@H](CC(C)C)NC(=O)[C@H](C)N(C)C(=O)[C@H](CCC(N)=O)NC(=O)[C@H](Cc3ccc(-c4ccccc4)cc3)NC(=O)[C@H](Cc3ccc(C(=O)O)cc3)NC2=O)c1 [Example 5039] ({CH2CO}-[Ala(morpholin-4-yl)]Y(Carboxymethyl)D[Phe(3-Me)][Phe(4-COOH)][Bip]Q[NMeA][dL][Dab][3Pal]V[Orn]C[Dab]-NH2; thioether N-14)
[1]; μM, read-out: CBA Method 1 μM
  IC50: 0.0729 µM
[2]; [4]
  IC50: 0.0607 µM

## Cc1cccc(C[C@@H]2NC(=O)[C@H](CC(=O)O)NC(=O)[C@H](Cc3ccc(-c4ccc(C(=O)O)cc4)cc3)NC(=O)[C@H](CN3CCOCC3)NC(=O)CSC[C@@H](C(=O)N[C@@H](CCN)C(N)=O)NC(=O)[C@H](CCC(=O)O)NC(=O)[C@H](C(C)(C)O)NC(=O)[C@H](CC(C)C)NC(=O)[C@H](CC(N)=O)NC(=O)[C@@H](CC(C)C)NC(=O)[C@H](C)N(C)C(=O)[C@H](C(C)C)NC(=O)[C@H](Cc3ccc(-c4ccccc4)cc3)NC(=O)[C@H](CC(C)C)NC2=O)c1 [Example 5126] ({CH2CO}-[Ala(morpholin-4-yl)][Bip(4'-COOH)]D[Phe(3-Me)]L[Bip]V[NMeA][dL]NL[Val(3-OH)]EC[Dab]-NH2; thioether N-14)
[3]; nM, read-out: CBA Method 3
  IC50: 3.2 nM

## CC(C)C[C@H]1NC(=O)[C@H](C)N(C)C(=O)[C@H](CCCN)NC(=O)[C@H](Cc2ccc(-c3ccccc3)cc2)NC(=O)[C@H](Cc2ccc(-c3ccc(C(=O)O)cc3)cc2)NC(=O)[C@H](Cc2cccc(C(F)(F)F)c2)NC(=O)[C@H](CC(=O)O)NC(=O)[C@H](Cc2ccc(-c3ccc(C(=O)O)cc3)cc2)NC(=O)[C@H](Cc2ccc(OCC(=O)O)cc2)NC(=O)CSC[C@@H](C(=O)N[C@@H](CCN)C(N)=O)NC(=O)[C@H](CCC(N)=O)NC(=O)[C@H](C(C)C)NC(=O)[C@H](CC2CCCCC2)NC(=O)[C@H](CCN)NC1=O [Example 5120] ({CH2CO}-Y(Carboxymethyl)[Bip(4'-COOH)]D[Phe(3-CF3)][Bip(4'-COOH)][Bip][Orn][NMeA][dL][Dab][Cha]VQC[Dab]-NH2; thioether N-14)
[3]; nM, read-out: CBA Method 3
  IC50: 5.6 nM

## CC(C)C[C@H]1NC(=O)[C@H](C)N(C)C(=O)[C@H](Cc2ccc(C(=O)O)cc2)NC(=O)[C@H](Cc2ccc(-c3ccccc3)cc2)NC(=O)[C@H](Cc2ccc(C(N)=O)cc2)NC(=O)[C@H](Cc2cccc(C(F)(F)F)c2)NC(=O)[C@H](CC(=O)O)NC(=O)[C@H](Cc2ccc(C(=O)O)cc2)NC(=O)[C@H]([C@H](C)N)NC(=O)CSC[C@@H](C(=O)N[C@@H](CCN)C(N)=O)NC(=O)[C@H](CC(N)=O)NC(=O)[C@H](C(C)C)NC(=O)[C@H](CC2CCCCC2)NC(=O)[C@H](CCN)NC1=O [Example 5101] ({CH2CO}-[Abu(3S-NH2)][Phe(4-COOH)]D[Phe(3-CF3)][Phe(4-CONH2)][Bip][Phe(4-COOH)][NMeA][dL][Dab][Cha]VNC[Dab]-NH2; thioether N-14)
[3]; nM, read-out: CBA Method 3
  IC50: 3.7 nM

## CC(=O)Nc1ccc(-c2ccc(C[C@@H]3NC(=O)[C@H](Cc4cccc(C(F)(F)F)c4)NC(=O)[C@H](CC(=O)O)NC(=O)[C@H](Cc4ccc(-c5ccc(C(=O)O)cc5)cc4)NC(=O)[C@H](CN4CCOCC4)NC(=O)CSC[C@@H](C(=O)N[C@@H](CCN)C(N)=O)NC(=O)[C@H](CCC(N)=O)NC(=O)[C@H](C(C)(C)O)NC(=O)[C@H](CC4CCCCC4)NC(=O)[C@H](CCN)NC(=O)[C@@H](CC(C)C)NC(=O)[C@H](C)N(C)C(=O)[C@H](Cc4ccc(C(=O)O)cc4)NC(=O)[C@H](Cc4ccc(-c5ccccc5)cc4)NC3=O)cc2)cc1 [Example 5296] ({CH2CO}-[Ala(morpholin-4-yl)][Bip(4'-COOH)]D[Phe(3-CF3)][Bip(4'-NHAc)][Bip][Phe(4-COOH)][NMeA][dL][Dab][Cha][Val(3-OH)]QC[Dab]-NH2; thioether N-14)
[3]; [5]
  IC50: 20 nM

## CC(=O)Nc1ccc(-c2ccc(C[C@@H]3NC(=O)[C@H](Cc4cccc(C(F)(F)F)c4)NC(=O)[C@H](CC(=O)O)NC(=O)[C@H](Cc4ccc(C(=O)O)cc4)NC(=O)[C@H](Cc4ccc(OCC(=O)O)cc4)NC(=O)CSC[C@@H](C(=O)N[C@@H](CCN)C(N)=O)NC(=O)[C@H](CCC(=O)O)NC(=O)[C@H](C(C)C)NC(=O)[C@H](CC4CCCCC4)NC(=O)[C@H](CCN)NC(=O)[C@@H](CC(C)C)NC(=O)[C@H](C)N(C)C(=O)[C@H](Cc4ccc(OCC(=O)O)cc4)NC(=O)[C@H](Cc4ccc(-c5ccccc5)cc4)NC3=O)cc2)cc1 [Example 5156] ({CH2CO}-Y(Carboxymethyl)[Phe(4-COOH)]D[Phe(3-CF3)][Bip(4'-NHAc)][Bip]Y(Carboxymethyl)[NMeA][dL][Dab][Cha]VEC[Dab]-NH2; thioether N-14)
[3]; [5]
  IC50: 70 nM

## Cc1cccc(C[C@@H]2NC(=O)[C@H](CC(=O)O)NC(=O)[C@H](Cc3ccc(OCC(=O)O)cc3)NC(=O)[C@H](CN3CCOCC3)NC(=O)CSC[C@@H](C(=O)N[C@@H](CCN)C(N)=O)NC(=O)[C@H](CCCN)NC(=O)[C@H](C(C)C)NC(=O)[C@H](CC3CCCCC3)NC(=O)[C@H](CCN)NC(=O)[C@@H](CC(C)C)NC(=O)[C@H](C)N(C)C(=O)[C@H](CCC(N)=O)NC(=O)[C@H](Cc3ccc(-c4ccccc4)cc3)NC(=O)[C@H](Cc3cccc(-c4ccc(N)nc4)c3)NC2=O)c1 [Example 5103] ({CH2CO}-[Ala(morpholin-4-yl)]Y(Carboxymethyl)D[Phe(3-Me)][X17][Bip]Q[NMeA][dL][Dab][Cha]V[Orn]C[Dab]-NH2; thioether N-14)
[3]; [5]
  IC50: 380 nM

## CC(C)C[C@H]1NC(=O)[C@H](C)N(C)C(=O)[C@H](Cc2ccc(C(=O)O)cc2)NC(=O)[C@H](Cc2ccc(-c3ccccc3)cc2)NC(=O)[C@H](Cc2ccc(C(=O)O)cc2)NC(=O)[C@H](Cc2cccc(C(F)(F)F)c2)NC(=O)[C@H](CC(=O)N[C@@H](CC(=O)O)C(=O)O)NC(=O)[C@H](Cc2ccc(C(=O)O)cc2)NC(=O)[C@H]([C@H](C)N)NC(=O)CSC[C@@H](C(=O)N[C@@H](CCN)C(N)=O)NC(=O)[C@H](CC(N)=O)NC(=O)[C@H](C(C)C)NC(=O)[C@H](CC2CCCCC2)NC(=O)[C@H](CCN)NC1=O [Example 5102] ({CH2CO}-[Abu(3S-NH2)][Phe(4-COOH)]D(Asp)[Phe(3-CF3)][Phe(4-COOH)][Bip][Phe(4-COOH)][NMeA][dL][Dab][Cha]VNC[Dab]-NH2; thioether N-14)
[3]; [5]
  IC50: 510 nM
